Results as given in patent US20240252581A1, “COMPOSITIONS AND METHODS FOR TREATING RESPIRATORY DISTRESS” (S.I.S. SHULOV INNOVATIVE SCIENCE LTD., priority 2021, published 2024).
Square brackets hold non-standard residues; d marks the D form. Peptide text beside a SMILES is read from it. * marks the point of attachment. pGlu = O=C1CC[C@@H](C(=O)O)N1; Octanoyl = CCCCCCCC(=O)*

Tested on: ACE2 mRNA
Assay: Relative ACE2 mRNA expression in lung tissue (real-time quantitative PCR)
Assay type: in vivo, mouse
Details: in relation to rplO gene
Experimental: In order to test the efficacy of ZEP3 sodium on lung inflammation, the lipopolysaccharide (LPS)-induced acute lung injury model was used. In particular, LPS was administered intratracheally at doses of 10 or 40 mg/kg body weight (BW) corresponding to 0.2 or 0.8 mg/mouse, respectively.
Relative ACE2 mRNA expression in lung tissue was determined as follows: mRNA was extracted from lung tissues, real-time quantitative PCR was employed, and expression of ACE2 gene in relation to rplO gene was measured.

Compound: CCCCCCCC(=O)NCCCC[C@H](NC(=O)[C@H](Cc1c[nH]c2ccccc12)NC(=O)[C@H](CC(N)=O)NC(=O)[C@@H]1CCC(=O)N1)C(=O)O [ZEP3Na, pGlu-Asn-Trp-Lys(Octanoyl)-ONa] ([pGlu]NWK(Octanoyl)-OH)
- Relative ACE2 mRNA expression (Mean ± SEM) (LPS 0.2 mg + ZEP3 Na 0.1 mg): 0.672 ± 0.145
- Relative ACE2 mRNA expression (Mean ± SEM) (LPS 0.2 mg + ZEP3 Na 0.4 mg): 1.239 ± 0.132
- Relative ACE2 mRNA expression (Mean ± SEM) (LPS 0.8 mg + ZEP3 Na 0.1 mg): 0.223 ± 0.031
- Relative ACE2 mRNA expression (Mean ± SEM) (LPS 0.8 mg + ZEP3 Na 0.1 mg, listed as ZEP3 sodium): 0.22
- Relative ACE2 mRNA expression (Mean ± SEM) (LPS 0.8 mg + ZEP3 Na 0.4 mg): 0.805 ± 0.251
- Relative ACE2 mRNA expression (Mean ± SEM) (ZEP3 Na 0.1 mg, no LPS): 1.750 ± 0.320
- Relative ACE2 mRNA expression (Mean ± SEM) (ZEP3 Na 0.4 mg, no LPS): 0.303 ± 0.025
